Publication PMC5656322, “BAK1 is involved in AtRALF1-induced inhibition of root cell expansion” (PLoS Genetics, 2017)
Entries after “also recorded” stand apart in the source; their conditions may differ. Where no end group is shown, it is not given here.

Columns and labels:
[1] = test system: BRI1 (BRI1-ECD); test: Yeast two-hybrid with BRI1-ECD; assay type: binding, Arabidopsis thaliana; settings: yeast AH109, medium lacking Leu, Trp, His
Excerpt: Fig 6 AtRALF1 interacts physically with BAK1 protein. (A) The active AtRALF1 peptide interacts with the extracellular domain (ECD) of BAK1 (BAK1-ECD) in yeast. The AtRALF1 protein fused to the GAL4 DNA-binding domain (AtRALF1-pGBKT7) was used as bait to test its interaction with the extracellular domain of the proteins fused to the GAL4 activation domain (pGADT7): BAK1 (BAK1-ECD), BAK7 (BAK7-ECD), BRI1 (BRI1-ECD) and FLS2 (FLS2-ECD). (B) Blueprint showing the truncated proteins from the extracellular domain of BAK1 tested in the two-hybrid assay. The extracellular domain of BAK1 comprises leucine zippers (LZ), 5 leucine rich-regions (LRRs) and a proline-rich region (pro-rich). (C) AtRALF1-pGBKT7 was used as bait to test its interaction with truncated proteins fused to the GAL4 activation domain (pGADT7). […] HA-BAK1-ECD was detected with an anti-HA antibody. AtRALF1 was detected with an anti-RALF antibody. […] BAK1-GFP was detected with an anti-GFP antibody. […]
The coding regions of the mature peptides AtRALF1 and AtRALF34 were amplified from Arabidopsis genomic DNA and fused to the GAL4 DNA-binding domain and the MYC epitope tag using the NdeI/BamHI sites in the pGBKT7 (Clontech) vector. […] The proteins fused to the HA and MYC epitope tags were detected by protein blotting. […]

[2] = test system: Arabidopsis seedlings, primary root; test: Root growth inhibition assay, vertical plates; assay type: in vivo, Arabidopsis thaliana
Procedure: (A) and (B) Arabidopsis seedlings (2 days old) were treated with 10 μM AtRALF1 or water (H20) for 2 days. The values are the mean ± SD of at least 25 seedlings. Triple asterisks indicate P < 0.01 (Student’s t test); ns, not significant. (C) Four-day-old seedlings were transferred to media containing different concentrations of AtRALF1, and the primary root length was measured after 8 days of treatment. The data represent the mean value ± SD of 30 seedlings. […] Representative Arabidopsis seedlings after 8 days of treatment with AtRALF1 are shown below. Seedlings were arranged on plates after the treatment for imaging. Scale bars, 1 cm. (D) Two-day-old seedlings were treated with 10 μM AtRALF1 or water for 2 days, and root cell length was measured after 2 days of treatment. Cells from the root endodermis in the differentiation zone were measured. The values are the mean ± SD of approximately 150 cells. Triple asterisks indicate P < 0.01 (Student’s t test); ns, not significant.
Aliquots of 1 ml of medium containing seeds were distributed into 24-well plates. The peptides (10 μM) were added after 2 days, and the root length was measured 2 days after treatment. To maximize root growth, the seeds were germinated in vertical plates. […] The root length was measured 8 days after treatment unless stated otherwise. Control plants were grown under identical conditions in a peptide-free medium. Quantitative data were obtained as previously described. […] The data from one representative experiment are shown. For cell length measurements, AtRALF1 peptide (10 μM) was added after 2 days of germination, and the cell length was measured after 2 days of treatment. The cell wall was stained with a 1 mg ml^-1 propidium iodide solution (Sigma) in the dark for 15 min and washed twice with water. Cells of the endodermis of the root differentiation zone were imaged and measured using confocal microscopy (Olympus FV1000). Approximately 30 plants from each genetic background and at least 5 cells per root were measured. The wavelengths for excitation and emission were 555 and 655 nm, respectively. Image processing was completed using the Olympus FluoView software.
Supplementary file pgen.1007053.s004.pdf: S4 Fig Analyses of root growth of Arabidopsis seedlings treated with AtRALF1 peptide for 8 days and evaluated daily. Four-day-old seedlings were transferred to media containing different concentrations of AtRALF1, and the primary root length was measured daily during the 8 days of treatment. Genotypes Wt, bak1-1, bak1-3 and bak1-4 are indicated on top of each series of graphics. The seedlings were treated with 0, 0.5, 1, 5 and 10 μM AtRALF1. The data represent the mean values ± SD of 30 seedlings. Double and triple asterisks indicate P < 0.05 and P <0.01, respectively (Student’s t test); ns, not significant. (PDF) Click here for additional data file.
Four-day-old seedlings were transferred to medium containing 10 μM AtRALF1, and the primary root length was measured after 8 days of treatment. The data represent the mean value ± SD of 20 seedlings. Triple asterisks indicate P < 0.01 (Student’s t test); ns, not significant. Representative Arabidopsis seedlings after 8 days of treatment with AtRALF1 are shown. The seedlings were arranged on plates after the treatment for imaging. Scale bars, 1 cm. (PDF) Click here for additional data file.
Four-day-old seedlings were transferred to medium containing 0.1 μM BAP, and the primary root length was measured after 8 days of treatment. The data represent the mean value ± SD of 10 seedlings.

AtRALF1: root-specific RALF isoform in Arabidopsis; recombinant peptide hormone produced in E. coli (ATTKYISYQSLKRNSVPCSRRGASYYNCQNGAQANPYSRGCSKIARCRS; ends and bridges not checked; cysteine pairing not given here)
interaction with BRI1-ECD (Y2H complementation) [1]: able to complement only the BAK1-ECD construct | sensitivity of root growth ([2]; 8 days of treatment, bak1-1, bak1-3, bak1-4 mutants): insensitive to the AtRALF1 peptide | daily root growth ([2]; bak1-mutant lines, 8-day treatment, 0-10 μM): No differences were observed in the daily root growth | highest concentration to which bak1 mutants are insensitive ([2]; bak1 mutants, 8 days): ≥ 10 µM | sensitivity of root growth ([2]; bak1 mutants, side by side with fer4, 8 days): insensitive to any tested concentrations of the peptide | primary root growth inhibition ([2]; bak7 mutant, 10 μM, 8 days): inhibited primary root growth | sensitivity of root growth ([2]; fer4 mutant, side by side with bak1 mutants, 8 days): conditional insensitivity to AtRALF1 treatment; also recorded: insensitive to AtRALF1 peptide in low concentrations only | dose with significant differences in root growth by the third day of treatment ([2]; wild-type, 0.5-10 μM tested, P < 0.05 / 0.01): ≥ 1 µM
